Measured values as given in patent publication US12128019B1, “Nanocomposite including abscisic acid-loaded collagen nanoparticles” (KING FAISAL UNIVERSITY, priority 2023, dated 2024).
Marks after values point to notes of the source that are not given here.

Experiments:
[1] = test system: adrenaline-induced myocardial infarction (MI); test: Electrocardiogram and haemodynamic assessment in adrenaline-induced MI rats; format: in vivo; conditions: for ECG finding: MI rats, FIGS. 3A-3E; for COP (mean) / HR (mean) / RR (interval) / ST height / carotid flow mean: rats, adrenaline 2 mg/kg s.c. on 2 consecutive days, treatment for one week
Description: (§1) Four groups of rats were injected with adrenaline (2 mg/kg, s.c.) as a single dose for 2 consecutive days (24 h apart) to induce myocardial infarction (MI) while an additional rat group was used as control. Treatment of the rat groups is set forth below.
(§2) Group 1: (Control negative group): rats were injected intraperitoneally (i.p.) with physiological saline 0.2 ml/day for one week.
(§3) Group 2 (MI group): rats were injected with adrenaline (2 mg/kg, s.c.) as a single dose for 2 consecutive days (24 h apart) to induce MI.
(§4) Group 3 (MI+ABA carrying on collagen nanoparticle): rats were injected with adrenaline (2 mg/kg, s.c.) as a single dose for 2 consecutive days (24 h apart) to induce MI and ABA-loaded collagen nanoparticle were administered with adrenaline by oral gavage for one week 1 mg/kg/day of.
(§5) Group 4 (MI+Trimetazidine): rats were injected with adrenaline (2 mg/kg, s.c.) as a single dose for 2 consecutive days (24 h apart) to induce MI and Trimetazidine (Sigma, USA) was administered intraperitoneally with adrenaline at 10 mg/kg/day for one week. Trimetazidine was injected intraperitoneally in the low-dose group (10 mg/kg).
(§6) Group 5 (MI+Collagen nanoparticle) group: rats were injected with adrenaline (2 mg/kg, s.c.) as a single dose for 2 consecutive days (24 h apart) to induce MI Collagen nanoparticle was administered along with adrenaline by oral gavage for one week at 1 mg/kg/day.
(§7) Group 6 (MI+ABA carrying on collagen nanoparticle+Trimetazidine) group: rats were injected with adrenaline (2 mg/kg, s.c.) as a single dose for 2 consecutive days (24 h apart) to induce MI, and ABA-loaded collagen nanoparticle were administered (1 mg/kg/day) by oral gavage and 10 mg/kg/day with Trimetazidine administered intraperitoneally (i.p.) along with adrenaline for one week.

[2] = test system: cardiac enzymes; troponin, LDH, and CK; test: Biological cardiac markers in serum, MI rats; format: in vivo; conditions: for Cardiac enzyme levels: serum troponin, LDH, CK
Description: as §1, §2, §3, §4, §5, §6, §7

[3] = Body and heart weight of experimental rats; format: in vivo; conditions: MI rats, treatment for one week
Description: as §1, §2, §3, §4, §5
Group 5 (MI+Collagen nanoparticle) group: rats were injected with adrenaline (2 mg/kg, s.c.) as a single dose for 2 consecutive days (24 h apart) to induce MI Collagen nanoparticle was administered along with adrenaline by oral gavage for one week at 1 mg/kg/day. […]

[4] = test system: oxidative stress markers and antioxidant enzymes; test: Oxidative stress markers and antioxidant enzymes, cardiac contents, MI rats; format: in vivo; conditions: treatment for one week
Description: as §1, §2, §3, §4, §5, §6, §7
All treatment drugs improved the marker levels. NO level increased due to adrenaline administration because the role of NO in cardiovascular diseases is complex and controversial.

[5] = test system: NHSF cell line; test: In vitro cytotoxicity and cell viability, optical microscope; format: cell-based
Description: On the NHSF cell line, the cytotoxic effect of ABA alone and collagen nanoparticles loaded with ABA was investigated with serial double-fold dilutions at an initial dose of 50 μMABA. ABA loaded with collagen nanoparticles was dissolved in ethanol, 0.0264 g/mL stock solutions, which were then serially diluted in a complete growth medium to make the different concentrations used in cytotoxicity assays. The cytotoxicity of each drug against the NHSF cell line was determined using an optical microscope. After a 24-hour incubation period at 37° C., exponentially developing cells were seeded in 96-well flat-bottomed microplates and subjected to drug doses for […].
After exposure of the NHSF cell line to each experimental drug, the reactions were allowed to proceed in an incubator (37° C./5% CO2/95% humidity) for 24 hours and 72 hours of time. Cell viability was recorded through an optical microscope, which is one of the methods generally used to detect cell proliferation or toxicity.
After 24 hours, cell growth rates in different types of ABA and “Marine Collagen Nanoparticles (MCNPs) with ABA were observed under an optical microscope. Cells were also cultured in media containing ethanol in an incubator (37° C./5% CO2/95% humidity) and then observed under an optical microscope.

## CC1=CC(=O)CC(C)(C)C1(O)/C=C/C(C)=C\C(=O)O (centres unmarked) [Extracted ABA, abscisic acid]
[1]
  ECG finding: still showed pathological changes but with the ST segment nearer to the isoelectric line
  COP (mean): 18.57 ± 1.0^b ml/min
  HR (mean): 247.4 ± 9.69^cd b/min
  RR (interval): 0.73 ± 0.03^b sec
  ST height: 42.98 ± 4.05^b mm
  carotid flow mean: 18.06 ± 1.15^b ml/min
[1]; compared to the MI group
  elevation of COP: 73%
  elevation of SV: 93%
  elevation of carotid blood flow: 70%
[2]
  Cardiac enzyme levels: decreased toward normal

## COc1ccc(CN2CCNCC2)c(OC)c1OC [Trimetazidine]
[1]
  ECG finding: almost normal electrocardiogramith little to no elevation in the ST-segment
  COP (mean): 23.9 ± 0.07^a ml/min
  HR (mean): 254.17 ± 1.89^c b/min
  RR (interval): 0.75 ± 0.02^a sec
  ST height: 27.55 ± 0.49^c mm
  carotid flow mean: 23.75 ± 0.05^a ml/min
[1]; compared to the MI group
  decrease in the ST segment elevation: ~46%
[3]; body weight
  Bwt: 188 ± 1.22^bcd
[3]; heart weight
  Hwt: 1.39 ± 0.03^cd
[4]; cardiac contents
  Catalase: 132.5 ± 36.08^ab U/g protein
  GSH: 19.59 ± 2.28ª μmol/g protein
  MDA: 4.4 ± 0.26^cde μmol/g protein
[4]
  NO: 52.22 ± 0^bc μM/g protein
[2]; serum, treatment for one week
  CK-MB: 1.13 ± 0.02^bc U/L
  LDH: 246.67 ± 12.47^d U/L
  Troponin: 1.34 ± 0.03^d ng/ml

## CC1=CC(=O)CC(C)(C)[C@@]1(O)/C=C/C(C)=C\C(=O)O [ABA, abscisic acid]
[5]; HSFs culture, after 72 hours
  cell proliferation: marked increase of proliferation
[5]; NHSF cell line, after 24 hours
  cell morphology: normal morphology of branch- and spindle-shapes

## CC1=CC(=O)CC(C)(C)[C@@]1(O)/C=C/C(C)=C\C(=O)O [Standard ABA, abscisic acid]
[1]
  ECG finding: still showed pathological changes but with the ST segment nearer to the isoelectric line
  COP (mean): 17.52 ± 0.1^b ml/min
  HR (mean): 255.77 ± 1.23^c b/min
  RR (interval): 0.7 ± 0.003^c sec
  ST height: 39.33 ± 2.15^b mm
  carotid flow mean: 17.4 ± 0.16^b ml/min
[1]; compared to the MI group
  elevation of COP: 63%
  elevation of SV: 73%
  elevation of carotid blood flow: 63%
[2]
  Cardiac enzyme levels: decreased toward normal
